This passage reports IC50 results from patent publication US10301267B2, “Compounds” (AstraZeneca AB, priority 2006, dated 2019).

Structures can show the parent of a compound that is named as a salt.

The target in the test is FGFR1 active kinase (Homo sapiens, UniProt P11362). In words: FGFR Kinase assay - Caliper. Also: 408 µM ATP. Format: biochemical. Particulars: FGFR1 […], 408 uM ATP; mean of n as printed; read-out: FGFR Kinase assay - Caliper, IC50. How it is done: FGFR Kinase Assay—Caliper
Sequence of FGFR1 active kinase (P11362 22-822): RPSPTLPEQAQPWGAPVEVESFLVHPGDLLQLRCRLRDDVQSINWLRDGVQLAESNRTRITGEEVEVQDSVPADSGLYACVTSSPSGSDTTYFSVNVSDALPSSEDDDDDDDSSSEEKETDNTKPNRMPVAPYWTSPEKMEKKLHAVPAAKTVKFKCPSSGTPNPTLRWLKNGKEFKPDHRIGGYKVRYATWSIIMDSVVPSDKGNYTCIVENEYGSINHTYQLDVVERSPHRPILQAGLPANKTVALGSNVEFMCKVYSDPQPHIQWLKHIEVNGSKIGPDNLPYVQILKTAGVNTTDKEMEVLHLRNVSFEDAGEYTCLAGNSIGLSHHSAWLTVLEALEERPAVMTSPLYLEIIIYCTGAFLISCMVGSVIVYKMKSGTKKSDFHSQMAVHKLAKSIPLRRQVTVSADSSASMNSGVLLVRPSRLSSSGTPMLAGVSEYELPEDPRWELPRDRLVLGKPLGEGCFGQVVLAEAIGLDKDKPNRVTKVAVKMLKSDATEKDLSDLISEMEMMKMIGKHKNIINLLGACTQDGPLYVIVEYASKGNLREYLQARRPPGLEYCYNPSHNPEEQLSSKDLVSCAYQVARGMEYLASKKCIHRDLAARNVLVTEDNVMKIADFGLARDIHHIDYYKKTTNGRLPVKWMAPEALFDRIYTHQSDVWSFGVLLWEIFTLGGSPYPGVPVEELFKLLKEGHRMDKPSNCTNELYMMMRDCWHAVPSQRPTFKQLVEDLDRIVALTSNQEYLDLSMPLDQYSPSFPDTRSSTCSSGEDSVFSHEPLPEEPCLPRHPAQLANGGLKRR
To determine inhibition of FGFR activity, kinase assays were conducted using Caliper technology.
Kinase activity assays were performed in Greiner 384-well low volume plates, with a total reaction volume of 12 ul per well. Final concentration of FGFR1 active kinase in each reaction well was 7.2 nM. The substrate for each assay was a custom peptide with fluorescent tag (13 amino acids in length, […] with the fluorescene tag on the first K).
Compounds were serially diluted in 5% (v/v) DMSO, before being added to assay plates. The Enzyme (at 7.2 nM [final]) and Substrate (at 3.6 uM [final]) were added separately to the compound plates, in reaction buffer [comprising: 50 mM MOPS (Sigma, Catalogue No. M1254)—pH 6.5, 0.004% Triton (Sigma, Catalogue No. X-100), 2.4 mM DTT, 12 mM MgCl2, 408 uM ATP] resulting in a final DMSO concentration in the reaction mix of 0.8%.
Assay plates were incubated at room temperature for 1.5 h, before the reaction was stopped with the addition of buffer [comprising: 100 mM HEPES—pH7.5, 0.033% Brij-35 (Sigma Catalogue No. B4184), 0.22% Caliper Coating Reagent #3 (Caliper Life Sciences Catalogue No. 760050), 88 mM EDTA, 5% DMSO]. Stopped assay plates were then read using the Caliper LabChip® LC3000 (which uses microfludics to measure a shift in mobility between fluorescent labelled peptide and the FGFR1 kinase—phosphorylated form of this peptide).
In the assay, compounds were tested at a range of concentrations.
Percentage inhibition at 1 uM, as expressed herein, is a calculated value based on the curve fit that was generated experimentally. From the fitted curve plot, the effect of compound at a concentration of 1 uM was calculated as a percentage inhibition. The IC50 is the concentration of compound, which inhibits FGFR1 kinase activity by 50% in the context of this assay.
Regarding `COc1cccc(CCc2cc(NC(=O)c3ccc(-n4cccn4)nc3)[nH]n2)c1` [Example 37, N-[5-[2-(3-Methoxyphenyl)ethyl]-2H-pyrazol-3-yl]-6-pyrazol-1-yl-pyridine-3-carboxamide], the IC50 – broadly, the point on the concentration scale where inhibition reaches its midpoint – was 69000 nM. The result for `COc1cc(CCc2cc(NC(=O)c3ccc(N4CCN(C)C(C)C4)cc3)n[nH]2)cc(OC)c1` (centres unmarked) [Example 81, N-[5-[2-(3,5-Dimethoxyphenyl)ethyl]-1H-pyrazol-3-yl]-4-(3,4-dimethylpiperazin-1-yl)benzamide] reads 40 nM; that for `COc1cc(CCc2cc(NC(=O)c3ccc(OCC4CCNCC4)cc3)n[nH]2)cc(OC)c1` [Example 44, N-[5-[2-(3,5-Dimethoxyphenyl)ethyl]-1H-pyrazol-3-yl]-4-(4-piperidylmethoxy)benzamide], 25 nM. Turning to `COc1cc(CCc2cc(NC(=O)c3ccc(N4CCN(C(C)C)CC4)cc3)n[nH]2)cc(OC)c1` [Example 87, N-[5-[2-(3,5-Dimethoxyphenyl)ethyl]-1H-pyrazol-3-yl]-4-(4-propan-2-ylpiperazin-1-yl)benzamide], the IC50 was 0.4 nM.

Take `COc1ccc(C(=O)Nc2cc(OCc3cc(OC)cc(OC)c3)n[nH]2)cc1` [Example 71, N-[5-[(3,5-Dimethoxyphenyl)methoxy]-2H-pyrazol-3-yl]-4-methoxy-benzamide]: the IC50 is 157 nM. The result for `COc1cc(COc2cc(NC(=O)c3ccc(N4CCNCC4)nc3)[nH]n2)cc(OC)c1` [Example 72, N-[5-[(3,5-Dimethoxyphenyl)methoxy]-2H-pyrazol-3-yl]-6-piperazin-1-yl-pyridine-3-carboxamide] reads 25 nM; that for `COc1cc(CCc2cc(NC(=O)c3ccccc3NCc3cc(C)no3)n[nH]2)cc(OC)c1` [Example 83, N-[5-[2-(3,5-Dimethoxyphenyl)ethyl]-1H-pyrazol-3-yl]-2-[(3-methyl-1,2-oxazol-5-yl)methylamino]benzamide], 1000 nM; that for `COc1cc(CCc2cc(NC(=O)c3ccc(CCN4CCOCC4)cc3)n[nH]2)cc(OC)c1` [Example 56, N-[5-[2-(3,5-Dimethoxyphenyl)ethyl]-1H-pyrazol-3-yl]-4-(2-morpholin-4-ylethyl)benzamide], 120 nM. In the case of `COc1cccc(CCc2cc(NC(=O)c3ccc(CO)cc3)[nH]n2)c1` [Example 28, 4-(Hydroxymethyl)-N-[5-[2-(3-methoxyphenyl)ethyl]-2H-pyrazol-3-yl]benzamide], the half-maximal inhibitory concentration (IC50) was determined as 74 nM.

For `COc1cc(CCc2cc(NC(=O)c3ccc(N4CCN5CCCCC5C4)cc3)[nH]n2)cc(OC)c1` (centres unmarked) [Example 94, 4-(1,3,4,6,7,8,9,9a-Octahydropyrido[2,1-c]pyrazin-2-yl)-N-[5-[2-(3,5-dimethoxyphenyl)ethyl]-2H-pyrazol-3-yl]benzamide], the IC50 was found to be 81 nM. With `COc1cc(CCc2cc(NC(=O)c3ccc(C(=O)N4CCN(C)CC4)cc3)n[nH]2)cc(OC)c1` [Example 86, N-[5-[2-(3,5-Dimethoxyphenyl)ethyl]-1H-pyrazol-3-yl]-4-(4-methylpiperazine-1-carbonyl)benzamide], the IC50 stood at 96 nM. The result for `COc1cccc(CCc2cc(NC(=O)c3ccc(NS(C)(=O)=O)cc3)[nH]n2)c1` [Example 27, 4-Methanesulfonamido-N-[5-[2-(3-methoxyphenyl)ethyl]-2H-pyrazol-3-yl]benzamide] reads 260 nM.

For the compound `COc1cc(CCc2cc(NC(=O)c3ccc(F)cc3)[nH]n2)cc(OC)c1` [Example 38, N-[5-[2-(3,5-Dimethoxyphenyl)ethyl]-2H-pyrazol-3-yl]-4-fluoro-benzamide], the IC50 was found to be 165 nM.

On to `COc1cc(CCc2cc(NC(=O)c3ccc(N4CCNCC4)s3)n[nH]2)cc(OC)c1` [Example 60, N-[5-[2-(3,5-Dimethoxyphenyl)ethyl]-1H-pyrazol-3-yl]-5-piperazin-1-yl-thiophene-2-carboxamide (2,2,2-trifluoroacetic Acid Salt)], for which the concentration for half-maximal inhibition (IC50) was 22 nM. As for `COc1cc(CCc2cc(NC(=O)c3ccc(OCCO)cc3)n[nH]2)cc(OC)c1` [Example 48, N-[5-[2-(3,5-Dimethoxyphenyl)ethyl]-1H-pyrazol-3-yl]-4-(2-hydroxyethoxy)benzamide], the figure is 39 nM; as for `COc1cccc(CCc2cc(NC(=O)c3ccc(C(=O)O)nc3)[nH]n2)c1` [Example 66, 5-[[5-[2-(3-Methoxyphenyl)ethyl]-2H-pyrazol-3-yl]carbamoyl]pyridine-2-carboxylic Acid], 1020 nM; as for `COC(=O)c1ccc(C(=O)Nc2cc(CCc3cccc(OC)c3)n[nH]2)cn1` [Example 67, Methyl 5-[[5-[2-(3-methoxyphenyl)ethyl]-2H-pyrazol-3-yl]carbamoyl]pyridine-2-carboxylate], 2860 nM.

In the case of `COc1cc(CCc2cc(NC(=O)c3ccc(N4CCN5CCCC5C4)cc3)[nH]n2)cc(OC)c1` (centres unmarked) [Example 93, 4-(3,4,6,7,8,8a-Hexahydro-1H-pyrrolo[2,1-c]pyrazin-2-yl)-N-[5-[2-(3,5-dimethoxyphenyl)ethyl]-2H-pyrazol-3-yl]benzamide], the IC50 was 37 nM. As for `CN1CCN(c2ccc(C(=O)Nc3cc(CCc4ccc5c(c4)OCO5)n[nH]3)cc2)CC1` [Example 77, N-[5-(2-Benzo[1,3]dioxol-5-ylethyl)-2H-pyrazol-3-yl]-4-(4-methylpiperazin-1-yl)benzamide], the figure is 140 nM; as for `COc1cc(CCc2cc(NC(=O)c3ccc(C4CCN(C)CC4)cc3)n[nH]2)cc(OC)c1` [Example 92, N-[5-[2-(3,5-Dimethoxyphenyl)ethyl]-1H-pyrazol-3-yl]-4-(1-methyl-4-piperidyl)benzamide], 7.9 nM; as for `COc1cccc(CCc2cc(NC(=O)c3ccc(-n4cnnn4)cc3)[nH]n2)c1` [Example 34, N-[5-[2-(3-Methoxyphenyl)ethyl]-2H-pyrazol-3-yl]-4-(tetrazol-1-yl)benzamide], 1000 nM. For the compound `COc1cc(CCc2cc(NC(=O)c3ccc(CN4CCCC(C)(C)C4)cc3)n[nH]2)cc(OC)c1` [Example 50, N-[5-[2-(3,5-Dimethoxyphenyl)ethyl]-1H-pyrazol-3-yl]-4-[(3,3-dimethyl-1-piperidyl)methyl]benzamide], the half-inhibitory concentration (IC50) worked out at 1 nM. The result for `COc1cc(CCc2cc(NC(=O)c3ccc(CN4CCCC(F)C4)cc3)n[nH]2)cc(OC)c1` (centres unmarked) [Example 53, N-[5-[2-(3,5-Dimethoxyphenyl)ethyl]-1H-pyrazol-3-yl]-4-[(3-fluoro-1-piperidyl)methyl]benzamide] reads 90 nM; that for `COc1cccc(CCc2cc(NC(=O)c3ccc(C#N)nc3)[nH]n2)c1` [Example 63, 6-Cyano-N-[5-[2-(3-methoxyphenyl)ethyl]-2H-pyrazol-3-yl]pyridine-3-carboxamide], 3770 nM; that for `CN(C)Cc1ccc(CCc2cc(NC(=O)c3ccc(N4CCN(C)CC4)cc3)n[nH]2)o1` [Example 76, N-[5-[2-[5-(Dimethylaminomethyl)-2-furyl]ethyl]-1H-pyrazol-3-yl]-4-(4-methylpiperazin-1-yl)benzamide], 340 nM. Turning to `COc1cccc(CCc2cc(NC(=O)c3ccc(C#N)cc3)[nH]n2)c1` [Example 23, 4-Cyano-N-[5-[2-(3-methoxyphenyl)ethyl]-2H-pyrazol-3-yl]benzamide], the IC50 worked out at 28600 nM. The result for `COc1cc(CCc2cc(NC(=O)c3ccc(CN4CCc5ccc(C#N)cc5C4)cc3)n[nH]2)cc(OC)c1` [Example 52, 4-[(7-Cyano-3,4-dihydro-1H-isoquinolin-2-yl)methyl]-N-[5-[2-(3,5-dimethoxyphenyl)ethyl]-1H-pyrazol-3-yl]benzamide] reads 486 nM.

Turning to `COc1cc(CCc2cc(NC(=O)c3ccccc3OC)n[nH]2)cc(OC)c1` [Example 41, N-[5-[2-(3,5-Dimethoxyphenyl)ethyl]-1H-pyrazol-3-yl]-2-methoxy-benzamide], the concentration for half-maximal inhibition (IC50) worked out at 2610 nM. As to `COc1cc(CCc2cc(NC(=O)c3ccc(CN4CCN(C)CC4)cc3)n[nH]2)cc(OC)c1` [Example 95, N-[5-[2-(3,5-Dimethoxyphenyl)ethyl]-1H-pyrazol-3-yl]-4-[(4-methylpiperazin-1-yl)methyl]benzamide], the IC50 was found to be 140 nM. The result for `COc1cccc(CCc2cc(NC(=O)c3ccc(CCN4CCCC4)nc3)[nH]n2)c1` [Example 65, N-[5-[2-(3-Methoxyphenyl)ethyl]-2H-pyrazol-3-yl]-6-(2-pyrrolidin-1-ylethyl)pyridine-3-carboxamide] reads 240 nM; that for `COc1cc(CCc2cc(NC(=O)c3ccc(N4CCN(CCO)CC4)cc3)n[nH]2)cc(OC)c1` [Example 51, N-[5-[2-(3,5-Dimethoxyphenyl)ethyl]-1H-pyrazol-3-yl]-4-[4-(2-hydroxyethyl)piperazin-1-yl]benzamide], 81 nM; that for `COc1cccc(CCc2cc(NC(=O)c3ccc(S(=O)(=O)N(C)C)cc3)[nH]n2)c1` [Example 30, 4-(Dimethylsulfamoyl)-N-[5-[2-(3-methoxyphenyl)ethyl]-2H-pyrazol-3-yl]benzamide], 800 nM.
